Laboratory results published in patent publication US20220402935A1, “HETEROCYCLIC COMPOUND” (FIMECS, INC., priority 2019, published 2022).

Target: T1, IRAK-M (Homo sapiens, UniProt Q9Y616)
T1 sequence (Q9Y616 1-596): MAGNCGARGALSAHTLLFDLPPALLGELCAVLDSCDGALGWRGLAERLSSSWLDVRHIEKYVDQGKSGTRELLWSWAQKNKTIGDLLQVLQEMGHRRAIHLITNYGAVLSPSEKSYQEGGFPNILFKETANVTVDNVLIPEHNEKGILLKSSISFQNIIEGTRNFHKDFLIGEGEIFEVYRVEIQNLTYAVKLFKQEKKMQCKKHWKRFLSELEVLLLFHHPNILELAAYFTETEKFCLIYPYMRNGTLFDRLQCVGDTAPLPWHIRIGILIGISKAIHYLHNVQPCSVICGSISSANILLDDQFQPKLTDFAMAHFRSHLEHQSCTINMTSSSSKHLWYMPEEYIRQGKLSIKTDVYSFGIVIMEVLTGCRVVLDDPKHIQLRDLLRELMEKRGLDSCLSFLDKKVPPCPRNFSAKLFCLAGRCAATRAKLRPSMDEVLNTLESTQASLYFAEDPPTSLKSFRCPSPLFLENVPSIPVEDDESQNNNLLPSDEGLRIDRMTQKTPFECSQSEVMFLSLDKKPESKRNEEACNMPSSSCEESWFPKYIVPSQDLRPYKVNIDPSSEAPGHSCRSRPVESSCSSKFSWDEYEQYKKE
Assay: IRAK-M binding inhibitory activity (KINOMEscan active site-dependent competitive assay)
Set-up: purchased Eurofins Discover X
Conditions: concentration of the test compound 1 μM; first symbol of cell; read-out: IRAK-M binding inhibition activity % Ctrl
Method: IRAK-M binding inhibitory activity was evaluated using active site-dependent competitive assay KINOMEscan® provided by Eurofins Discover X (Goldstein, D. M. et al. High-throughput kinase profiling as a platform for drug discovery. Nat. Rev. Drug Discovery. 7, 391-397 (2008)). IRAK-M binding inhibitory activity of the test compound was evaluated. […] The “% Ctrl” is calculated by the following formula.
(test compound signal−positive control compound signal)/(negative control compound signal−positive control compound signal)×100
Negative control compound=DMSO (100 Ctrl)
Positive control compound=control compound (0%×Ctrl)

**Q.** With `c1cc(Nc2ncnc3ccsc23)ccn1` [Ref. example 21, N-(pyridin-4-yl)thieno[3,2-d]pyrimidin-4-amine] as the compound, how does the remaining binding at 1 µM read?
**A.** < 25%

**Q.** Which remaining binding at 1 µM does the source give for `FC(F)(F)c1cc(Nc2ncnc3ccsc23)ccn1` [Ref. example 22, N-(2-(trifluoromethyl)pyridin-4-yl)thieno[3,2-d]pyrimidin-4-amine] here?
**A.** 50 to 75%

**Q.** `COc1cc(Nc2ncnc3ccsc23)ccn1` [Ref. example 23, N-(2-methoxypyridin-4-yl)thieno[3,2-d]pyrimidin-4-amine] was tested. Which remaining binding at 1 µM did it give?
**A.** 25 to 50%

**Q.** How did the remaining binding at 1 µM turn out when `FC(F)(F)c1ncccc1Nc1ncnc2ccsc12` [Ref. example 24, N-(2-(trifluoromethyl)pyridin-3-yl)thieno[3,2-d]pyrimidin-4-amine] was run?
**A.** 50 to 75%

**Q.** With `Cc1cc(Nc2ncnc3ccsc23)n(-c2ccccn2)n1` [Ref. example 25, N-(3-methyl-1-(pyridin-2-yl)-1H-pyrazol-5-yl)thieno[3,2-d]pyrimidin-4-amine] as the compound, how does the remaining binding at 1 µM read?
**A.** 25 to 50%

**Q.** With `c1nc(Nc2ccc3[nH]cnc3c2)c2sccc2n1` [Ref. example 26, N-(1H-benzo[d]imidazol-5-yl)thieno[3,2-d]pyrimidin-4-amine] as the compound, how does the remaining binding at 1 µM read?
**A.** ≥ 75%

**Q.** Which remaining binding at 1 µM does the source give for `O=C1NC(=O)c2cc(Nc3ncnc4ccsc34)ccc21` [Ref. example 27, 5-(thieno[3,2-d]pyrimidin-4-ylamino)isoindoline-1,3-dione] here?
**A.** 50 to 75%

**Q.** With `c1nc(Nc2ccc3cn[nH]c3c2)c2sccc2n1` [Ref. example 28, N-(1H-indazol-6-yl)thieno[3,2-d]pyrimidin-4-amine] as the compound, how does the remaining binding at 1 µM read?
**A.** 50 to 75%

**Q.** With `O=C1OCc2cc(Nc3ncnc4ccsc34)ccc21` [Ref. example 29, 5-(thieno[3,2-d]pyrimidin-4-ylamino)isobenzofuran-1(3H)-one] as the compound, how does the remaining binding at 1 µM read?
**A.** 25 to 50%

**Q.** Which remaining binding at 1 µM does the source give for `COC(=O)c1cc2ncnc(NCC3CC3)c2s1` [Ref. example 30, methyl 4-((cyclopropylmethyl)amino)thieno[3,2-d]pyrimidine-6-carboxylate] here?
**A.** ≥ 75%

**Q.** How did the remaining binding at 1 µM turn out when `CN1CCC(Oc2ncnc3cc(-c4cnn(C)c4)sc23)CC1` [Ref. example 31, 6-(1-methyl-1H-pyrazol-4-yl)-4-((1-methylpiperidin-4-yl)oxy)thieno[3,2-d]pyrimidine] was run?
**A.** ≥ 75%

**Q.** For `C#Cc1cc2ncnc(OC3CCN(C)CC3)c2s1` [Ref. example 32, 6-ethynyl-4-((1-methylpiperidin-4-yl)oxy)thieno[3,2-d]pyrimidine], which remaining binding at 1 µM is on record?
**A.** ≥ 75%

**Q.** `NC(=O)c1ccc(Nc2nc(Cl)nc3ccsc23)cc1` [Ref. example 33, 4-((2-chlorothieno[3,2-d]pyrimidin-4-yl)amino)benzamide] was tested. Which remaining binding at 1 µM did it give?
**A.** ≥ 75%

**Q.** With `Ic1cc2ncnc(OC3CCOCC3)c2s1` [Ref. example 34, 6-iodo-4-((tetrahydro-2H-pyran-4-yl)oxy)thieno[3,2-d]pyrimidine] as the compound, how does the remaining binding at 1 µM read?
**A.** ≥ 75%

**Q.** For `Ic1cc2ncnc(OC3CCSCC3)c2s1` [Ref. example 35, 6-iodo-4-((tetrahydro-2H-thiopyran-4-yl)oxy)thieno[3,2-d]pyrimidine], which remaining binding at 1 µM is on record?
**A.** ≥ 75%

**Q.** `CN1CCC(Oc2ncnc3cc(I)sc23)CC1` [Ref. example 36, 6-iodo-4-((1-methylpiperidin-4-yl)oxy)thieno[3,2-d]pyrimidine] was tested. Which remaining binding at 1 µM did it give?
**A.** ≥ 75%

**Q.** Which remaining binding at 1 µM does the source give for `O=S1(=O)CCC(Oc2ncnc3cc(I)sc23)CC1` [Ref. example 37, 4-((6-iodothieno[3,2-d]pyrimidin-4-yl)oxy)tetrahydro-2H-thiopyran 1,1-dioxide] here?
**A.** ≥ 75%

**Q.** Which remaining binding at 1 µM does the source give for `O=S(=O)(c1c(F)cccc1F)N1CCC(Oc2ncnc3ccsc23)CC1` [Ref. example 38, 4-((1-((2,6-difluorophenyl)sulfonyl)piperidin-4-yl)oxy)thieno[3,2-d]pyrimidine] here?
**A.** 25 to 50%

**Q.** For `CS(=O)(=O)N1CCC(Oc2ncnc3ccsc23)CC1` [Ref. example 39, 4-((1-(methylsulfonyl)piperidin-4-yl)oxy)thieno[3,2-d]pyrimidine], which remaining binding at 1 µM is on record?
**A.** 50 to 75%

**Q.** For `COCCS(=O)(=O)N1CCC(Oc2ncnc3ccsc23)CC1` [Ref. example 40, 4-((1-((2-methoxyethyl)sulfonyl)piperidin-4-yl)oxy)thieno[3,2-d]pyrimidine], which remaining binding at 1 µM is on record?
**A.** 25 to 50%

**Q.** Which remaining binding at 1 µM does the source give for `O=S(=O)(Cc1ccccc1)N1CCC(Oc2ncnc3ccsc23)CC1` [Ref. example 41, 4-((1-(benzylsulfonyl)piperidin-4-yl)oxy)thieno[3,2-d]pyrimidine] here?
**A.** 25 to 50%

**Q.** For `CC(C)(C)OC(=O)N1CCC(CS(=O)(=O)N2CCC(Oc3ncnc4ccsc34)CC2)CC1` [Ref. example 42, tert-butyl 4-(((4-(thieno[3,2-d]pyrimidin-4-yloxy)piperidin-1-yl)sulfonyl)methyl)piperidine-1-carboxylate], which remaining binding at 1 µM is on record?
**A.** 50 to 75%

**Q.** `CCOC(=O)CCS(=O)(=O)N1CCC(Oc2ncnc3ccsc23)CC1` [Ref. example 43, ethyl 3-((4-(thieno[3,2-d]pyrimidin-4-yloxy)piperidin-1-yl)sulfonyl)propanoate] was tested. Which remaining binding at 1 µM did it give?
**A.** 50 to 75%

**Q.** How did the remaining binding at 1 µM turn out when `O=S(=O)(C1CC1)N1CCC(Oc2ncnc3ccsc23)CC1` [Ref. example 44, 4-((1-(cyclopropylsulfonyl)piperidin-4-yl)oxy)thieno[3,2-d]pyrimidine] was run?
**A.** 25 to 50%

**Q.** For `O=S(=O)(c1ccccc1Cl)N1CCC(Oc2ncnc3ccsc23)CC1` [Ref. example 45, 4-((1-((2-chlorophenyl)sulfonyl)piperidin-4-yl)oxy)thieno[3,2-d]pyrimidine], which remaining binding at 1 µM is on record?
**A.** < 25%

**Q.** With `COc1ccccc1S(=O)(=O)N1CCC(Oc2ncnc3ccsc23)CC1` [Ref. example 46, 4-((1-((2-methoxyphenyl)sulfonyl)piperidin-4-yl)oxy)thieno[3,2-d]pyrimidine] as the compound, how does the remaining binding at 1 µM read?
**A.** < 25%

**Q.** For `Cc1ccccc1S(=O)(=O)N1CCC(Oc2ncnc3ccsc23)CC1` [Ref. example 47, 4-((1-(o-tolylsulfonyl)piperidin-4-yl)oxy)thieno[3,2-d]pyrimidine], which remaining binding at 1 µM is on record?
**A.** < 25%

**Q.** Which remaining binding at 1 µM does the source give for `O=S(=O)(c1ccccc1Oc1ccc(F)cc1)N1CCC(Oc2ncnc3ccsc23)CC1` [Ref. example 48, 4-((1-((2-(4-fluorophenoxy)phenyl)sulfonyl)piperidin-4-yl)oxy)thieno[3,2-d]pyrimidine] here?
**A.** < 25%

**Q.** `O=S(=O)(c1ccccc1F)N1CCC(Oc2ncnc3ccsc23)CC1` [Ref. example 49, 4-((1-((2-fluorophenyl)sulfonyl)piperidin-4-yl)oxy)thieno[3,2-d]pyrimidine] was tested. Which remaining binding at 1 µM did it give?
**A.** 25 to 50%

**Q.** For `O=S(=O)(c1ccccc1OC(F)(F)F)N1CCC(Oc2ncnc3ccsc23)CC1` [Ref. example 50, 4-((1-((2-(trifluoromethoxy)phenyl)sulfonyl)piperidin-4-yl)oxy)thieno[3,2-d]pyrimidine], which remaining binding at 1 µM is on record?
**A.** 25 to 50%

**Q.** Which remaining binding at 1 µM does the source give for `COc1ccc(S(=O)(=O)N2CCC(Oc3ncnc4ccsc34)CC2)cc1` [Ref. example 51, 4-((1-((4-methoxyphenyl)sulfonyl)piperidin-4-yl)oxy)thieno[3,2-d]pyrimidine] here?
**A.** 25 to 50%

**Q.** `O=S(=O)(c1ccc(Cl)cc1)N1CCC(Oc2ncnc3ccsc23)CC1` [Ref. example 52, 4-((1-((4-chlorophenyl)sulfonyl)piperidin-4-yl)oxy)thieno[3,2-d]pyrimidine] was tested. Which remaining binding at 1 µM did it give?
**A.** < 25%

**Q.** Which remaining binding at 1 µM does the source give for `O=S(=O)(c1ccc(F)cc1)N1CCC(Oc2ncnc3ccsc23)CC1` [Ref. example 53, 4-((1-((4-fluorophenyl)sulfonyl)piperidin-4-yl)oxy)thieno[3,2-d]pyrimidine] here?
**A.** 25 to 50%

**Q.** Which remaining binding at 1 µM does the source give for `COc1cccc(S(=O)(=O)N2CCC(Oc3ncnc4ccsc34)CC2)c1` [Ref. example 54, 4-((1-((3-methoxyphenyl)sulfonyl)piperidin-4-yl)oxy)thieno[3,2-d]pyrimidine] here?
**A.** 25 to 50%

**Q.** Which remaining binding at 1 µM does the source give for `Cc1ccc(S(=O)(=O)N2CCC(Oc3ncnc4ccsc34)CC2)cc1` [Ref. example 55, 4-((1-(4-methylbenzenesulfonyl)piperidin-4-yl)oxy)thieno[3,2-d]pyrimidine] here?
**A.** 25 to 50%

**Q.** How did the remaining binding at 1 µM turn out when `O=S(=O)(c1cccc(F)c1)N1CCC(Oc2ncnc3ccsc23)CC1` [Ref. example 56, 4-((1-((3-fluorophenyl)sulfonyl)piperidin-4-yl)oxy)thieno[3,2-d]pyrimidine] was run?
**A.** 25 to 50%

**Q.** How did the remaining binding at 1 µM turn out when `O=S(=O)(c1cccc(Cl)c1)N1CCC(Oc2ncnc3ccsc23)CC1` [Ref. example 57, 4-((1-((3-chlorophenyl)sulfonyl)piperidin-4-yl)oxy)thieno[3,2-d]pyrimidine] was run?
**A.** 25 to 50%

**Q.** With `O=S(=O)(c1cccnc1)N1CCC(Oc2ncnc3ccsc23)CC1` [Ref. example 58, 4-((1-(pyridin-3-ylsulfonyl)piperidin-4-yl)oxy)thieno[3,2-d]pyrimidine] as the compound, how does the remaining binding at 1 µM read?
**A.** 25 to 50%

**Q.** For `O=S(=O)(c1cnn(Cc2ccccc2)c1)N1CCC(Oc2ncnc3ccsc23)CC1` [Ref. example 59, 4-((1-((1-benzyl-1H-pyrazol-4-yl)sulfonyl)piperidin-4-yl)oxy)thieno[3,2-d]pyrimidine], which remaining binding at 1 µM is on record?
**A.** 25 to 50%
